ChEMBL document CHEMBL1201862, “PubChem BioAssay data set” (2004)
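Growth conditions: 96-well plates. Treatment: test compound, 48 hours, 5 concentrations. Analysis: linear interpolation between bracketing concentrations; unreached endpoints set to highest concentration. GI50 marks 50% less growth.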 The source made the active and inactive calls. Rule as the data show it: active = GI50 up to about 1.1 µM and inactive = higher. Square brackets hold non-standard residues; d marks the D form. Peptide text beside a SMILES is read from it.

What was measured:
Test in all cases: NCI anticancer screen, dose series, 48 h
786-0 = system: 786-0
A549 = system: A549
HCT-116 = system: HCT-116
Hs-578T = system: Hs-578T
K562 = system: K562
LOX IMVI = system: LOX IMVI
MCF7 = system: MCF7
MDA-MB-231 = system: MDA-MB-231
OVCAR-4 = system: OVCAR-4
OVCAR-8 = system: OVCAR-8
PC-3 = system: PC-3
RXF 393 = system: RXF 393
SN12C = system: SN12C
SNB-75 = system: SNB-75
SR = system: SR
U-251 = system: U-251
UACC-257 = system: UACC-257
UO-31 = system: UO-31
SNB-19 = system: SNB-19
UACC-62 = system: UACC-62

SMILES	GI50 (786-0)	GI50 (A549)	GI50 (HCT-116)	GI50 (Hs-578T)	GI50 (K562)	GI50 (LOX IMVI)	GI50 (MCF7)	GI50 (MDA-MB-231)	GI50 (OVCAR-4)	GI50 (OVCAR-8)	GI50 (PC-3)	GI50 (RXF 393)	GI50 (SN12C)	GI50 (SNB-75)	GI50 (SR)	GI50 (U-251)	GI50 (UACC-257)	GI50 (UO-31)	GI50 (SNB-19)	GI50 (UACC-62)
CNC(=O)OCc1cnc([N+](=O)[O-])n1C	> 100 µM (inactive)	> 100 µM (inactive)	> 100 µM (inactive)	> 100 µM (inactive)	> 100 µM (inactive)	> 100 µM (inactive)	> 100 µM (inactive)	> 100 µM (inactive)	> 100 µM (inactive)	> 100 µM (inactive)	> 100 µM (inactive)	> 100 µM (inactive)	> 100 µM (inactive)	> 100 µM (inactive)	> 100 µM (inactive)	> 100 µM (inactive)	> 100 µM (inactive)	> 100 µM (inactive)	–	–
O=C1Nc2cc(Cl)ccc2C(=O)N2CCC[C@@H]12	> 100 µM (inactive)	> 100 µM (inactive)	> 100 µM (inactive)	33.5 µM (inactive)	> 100 µM (inactive)	> 100 µM (inactive)	> 100 µM (inactive)	> 100 µM (inactive)	> 100 µM (inactive)	> 100 µM (inactive)	> 100 µM (inactive)	> 100 µM (inactive)	> 100 µM (inactive)	> 100 µM (inactive)	–	> 100 µM (inactive)	> 100 µM (inactive)	> 100 µM (inactive)	> 100 µM (inactive)	> 100 µM (inactive)
O=C(Cn1c(=O)oc2ccc(C(=O)c3ccccc3Cl)cc21)c1ccc([N+](=O)[O-])cc1	19.6 µM (inactive)	25.2 µM (inactive)	17.8 µM (inactive)	37.2 µM (inactive)	14.9 µM (inactive)	17 µM (inactive)	22.9 µM (inactive)	20.8 µM (inactive)	10.9 µM (inactive)	24.7 µM (inactive)	22.8 µM (inactive)	–	24.5 µM (inactive)	0.824 µM (active)	8.39 µM (inactive)	29.9 µM (inactive)	31.1 µM (inactive)	23.6 µM (inactive)	40.5 µM (inactive)	12 µM (inactive)
COc1cc2c(cc1OC)CC(=O)c1cc(OC)c(OC)cc1/C=C\2	> 12.5 µM (inactive)	> 12.5 µM (inactive)	> 12.5 µM (inactive)	> 12.5 µM (inactive)	3.45 µM (inactive)	> 12.5 µM (inactive)	> 12.5 µM (inactive)	> 12.5 µM (inactive)	> 12.5 µM (inactive)	> 12.5 µM (inactive)	> 12.5 µM (inactive)	> 12.5 µM (inactive)	> 12.5 µM (inactive)	4.83 µM (inactive)	–	> 12.5 µM (inactive)	> 12.5 µM (inactive)	> 12.5 µM (inactive)	> 12.5 µM (inactive)	> 12.5 µM (inactive)
COC(=O)/C=C/c1cnc2c(c1)oc(=O)n2C	> 100 µM (inactive)	> 100 µM (inactive)	> 100 µM (inactive)	> 100 µM (inactive)	> 100 µM (inactive)	> 100 µM (inactive)	> 100 µM (inactive)	> 100 µM (inactive)	> 100 µM (inactive)	> 100 µM (inactive)	> 100 µM (inactive)	–	> 100 µM (inactive)	> 100 µM (inactive)	> 100 µM (inactive)	> 100 µM (inactive)	> 100 µM (inactive)	> 100 µM (inactive)	> 100 µM (inactive)	> 100 µM (inactive)
O=c1cc(NCC2CCCCC2)[nH]c(=O)[nH]1	> 100 µM (inactive)	> 100 µM (inactive)	> 100 µM (inactive)	> 100 µM (inactive)	> 100 µM (inactive)	> 100 µM (inactive)	> 100 µM (inactive)	> 100 µM (inactive)	> 100 µM (inactive)	> 100 µM (inactive)	> 100 µM (inactive)	> 100 µM (inactive)	> 100 µM (inactive)	> 100 µM (inactive)	> 100 µM (inactive)	> 100 µM (inactive)	> 100 µM (inactive)	> 100 µM (inactive)	> 100 µM (inactive)	–
COC(=O)CN(CC(=O)NCCNC(=O)OC(C)(C)C)C1CCCCC1N(CC(=O)OC)CC(=O)OC (stereo unspecified)	> 100 µM (inactive)	> 100 µM (inactive)	> 100 µM (inactive)	> 100 µM (inactive)	> 100 µM (inactive)	> 100 µM (inactive)	> 100 µM (inactive)	> 100 µM (inactive)	–	> 100 µM (inactive)	> 100 µM (inactive)	–	> 100 µM (inactive)	–	> 100 µM (inactive)	> 100 µM (inactive)	> 100 µM (inactive)	> 100 µM (inactive)	> 100 µM (inactive)	> 100 µM (inactive)
CC(O)c1c2c(cc3c1CC1(C3)Cc3cc4c(c(C(C)O)c3C1)CCC4)CCC2 (stereo unspecified)	14.8 µM (inactive)	13.6 µM (inactive)	12.1 µM (inactive)	22.5 µM (inactive)	9.59 µM (inactive)	17.5 µM (inactive)	11.8 µM (inactive)	16.8 µM (inactive)	2.86 µM (inactive)	46.2 µM (inactive)	18.7 µM (inactive)	14.9 µM (inactive)	16.7 µM (inactive)	–	8.38 µM (inactive)	14.1 µM (inactive)	13.9 µM (inactive)	1.69 µM (inactive)	–	19.3 µM (inactive)
COc1ccc(C(=O)/C=C2\Nc3cccnc3N\C2=C/C(=O)c2ccc(OC)cc2)cc1	2.17 µM (inactive)	15.6 µM (inactive)	15.2 µM (inactive)	15.2 µM (inactive)	57.9 µM (inactive)	13.9 µM (inactive)	14.8 µM (inactive)	13.5 µM (inactive)	2.67 µM (inactive)	14.3 µM (inactive)	> 100 µM (inactive)	–	12.2 µM (inactive)	–	16.1 µM (inactive)	14.6 µM (inactive)	26.7 µM (inactive)	27.4 µM (inactive)	18.7 µM (inactive)	17.3 µM (inactive)
C=C1C(OC)=C(OC)C(=O)c2[nH]c3c(OC)cc([N+](=O)[O-])cc3c21	37.8 µM (inactive)	> 100 µM (inactive)	> 100 µM (inactive)	> 100 µM (inactive)	> 100 µM (inactive)	> 100 µM (inactive)	> 100 µM (inactive)	> 100 µM (inactive)	> 100 µM (inactive)	> 100 µM (inactive)	> 100 µM (inactive)	37 µM (inactive)	> 100 µM (inactive)	39.1 µM (inactive)	–	> 100 µM (inactive)	> 100 µM (inactive)	> 100 µM (inactive)	> 100 µM (inactive)	> 100 µM (inactive)
COc1cc(OC)nc(-n2c(N)c(C#N)c3ccc([N+](=O)[O-])cc3c2=O)n1	> 100 µM (inactive)	> 100 µM (inactive)	> 100 µM (inactive)	> 100 µM (inactive)	–	> 100 µM (inactive)	> 100 µM (inactive)	> 100 µM (inactive)	> 100 µM (inactive)	> 100 µM (inactive)	> 100 µM (inactive)	–	> 100 µM (inactive)	> 100 µM (inactive)	> 100 µM (inactive)	92.3 µM (inactive)	> 100 µM (inactive)	> 100 µM (inactive)	> 100 µM (inactive)	> 100 µM (inactive)
CN(C)/C=N\c1c(Br)cc(Br)c2nonc12	> 100 µM (inactive)	> 100 µM (inactive)	> 100 µM (inactive)	66.4 µM (inactive)	> 100 µM (inactive)	–	> 100 µM (inactive)	> 100 µM (inactive)	> 100 µM (inactive)	> 100 µM (inactive)	> 100 µM (inactive)	> 100 µM (inactive)	> 100 µM (inactive)	44.3 µM (inactive)	> 100 µM (inactive)	–	> 100 µM (inactive)	> 100 µM (inactive)	> 100 µM (inactive)	> 100 µM (inactive)
NC(=O)c1c[se]c(C2OC(CO)C(O)C2O)n1 (stereo unspecified)	2.44 µM (inactive)	8.67 µM (inactive)	3.45 µM (inactive)	> 100 µM (inactive)	0.627 µM (active)	32.1 µM (inactive)	8.67 µM (inactive)	5.01 µM (inactive)	3.99 µM (inactive)	4.31 µM (inactive)	1.44 µM (inactive)	–	> 84.7 µM (inactive)	> 59 µM (inactive)	8.61 µM (inactive)	0.953 µM (active)	> 100 µM (inactive)	6.5 µM (inactive)	6.35 µM (inactive)	12.3 µM (inactive)
N=C(N)NCCC[C@H]1NC(=O)[C@@H](CCC(=O)O)NC(=O)[C@@H](CC(=O)O)NC(=O)[C@@H](CCC(=O)O)NC(=O)[C@H](Cc2c[nH]c3ccccc23)NC1=O (cyclo(W[dE][dD][dE][dR]))	> 7.5 µM (inactive)	> 7.5 µM (inactive)	> 7.5 µM (inactive)	> 7.5 µM (inactive)	> 7.5 µM (inactive)	> 7.5 µM (inactive)	> 7.5 µM (inactive)	> 7.5 µM (inactive)	> 7.5 µM (inactive)	> 7.5 µM (inactive)	0.351 µM (active)	> 7.5 µM (inactive)	> 7.5 µM (inactive)	–	> 7.5 µM (inactive)	> 7.5 µM (inactive)	> 7.5 µM (inactive)	> 7.5 µM (inactive)	> 7.5 µM (inactive)	> 7.5 µM (inactive)
Cc1cn([C@H]2C[C@H](N=[N+]=[N-])[C@@H](CO)O2)c(=O)[nH]c1=O [ZIDOVUDINE]	> 100 µM (inactive)	> 97.3 µM (inactive)	88.5 µM (inactive)	885 µM (inactive)	177 µM (inactive)	> 83 µM (inactive)	66.4 µM (inactive)	> 100 µM (inactive)	> 85.1 µM (inactive)	180 µM (inactive)	885 µM (inactive)	89.5 µM (inactive)	> 100 µM (inactive)	–	177 µM (inactive)	–	> 100 µM (inactive)	> 100 µM (inactive)	–	239 µM (inactive)
